The subject of one series is spleen tissue. Nature of the series: Spleen tissue after injection into testes. The format is in vivo, mouse. To be noted: same animal as FIG. 11 (10 mg/kg into testes), 15 days after injection.
For series [1], the system named is GS cells. Nature of the series: Detachment of GS cells from feeder cells. It is filed as cell-based, mouse. To be noted: 50 μM, 5 days, vs vehicle. The procedure: (§1) FIG. 7A-F. Inhibition of SHP2 blocks GDNF and FGF signaling causes SSCs to detach from their niche decreases the number of SSCs in culture and disrupts spermatogenesis in vivo. […] Western blot analysis of p-ERK and ERK levels after the treatments is shown. […] The percentage of cells detached from feeder cells was determined (n=3, *=p<0.05). C) The epididymis of control and GCSHP2KO mice were stained with periodic acid Schiffs-hematoxylin. Immature germ cells in GCSHP2KO epididymis are identified with arrows. D) GS cells treated with vehicle or NSC (50 μM) as in B were isolated from feeder cells, dispersed and counted. E) Clumps of GS cells (white arrows) and feeder cells (yellow arrows) treated as in D were assayed for live (green) and dead (red) cells.
Preparation of GS cell cultures from 6-day-old DBA/2 mice was performed as described previously (Oatley and Brinster, 2006). Briefly, a testicular cell suspension was isolated by enzymatic digestion with DNase and trypsin and filtered through a 40 uM mesh to remove cell clumps. Germ cells were then enriched from these suspensions through a 30% percoll gradient. The germ cell suspensions were subjected to magnetic activated cell sorting (MACS) to select Thy1+ cells to enrich for SSCs. […]

The subject of series [2] is FGF and GDNF-mediated phosphorylation of ERK. Nature of the series: FGF/GDNF-stimulated ERK phosphorylation in GS cell cultures (western blot). It is filed as cell-based, mouse. The conditions noted are these: FGF 20 ng/ml or GDNF 20 ng/ml, pretreatment with 50 μM. The procedure:
as §1
Isolation of THY1+ germ cells from 6-day-old DBA/2 mice was performed as described previously to produce GS cell cultures (Oatley and Brinster, 2006) (more details in Supplemental Experimental Procedures). […] SSCs were detached from feeders and FGF or GDNF were added for 10 min. Detached SSCs were then pelleted (600×g, 7 min) and the pellets were lysed in Laemmli sample buffer.
WCE boiled in Laemmli sample buffer were fractionated by 10% SDS-PAGE and transferred to Immobilon-P, PVDF membranes 90 (Millipore Corp., Bedford, Mass.). […]

For series [3], the system named is GS cells. Briefly: GS cell number after isolation from feeder cells, dispersed and counted. It is filed as cell-based, mouse. The conditions noted are these: 50 μM, 5 day treatment, vs vehicle. The protocol: as §1
All immunostained cells and tubules from an entire testis section were counted and the number of stained cells per tubule was determined. GS cell viability was determined using the LIVE/DEAD Viability Assay kit for mammalian cells (Life Technologies)
Preparation of GS cell cultures from 6-day-old DBA/2 mice was performed as described previously (Oatley and Brinster, 2006). Briefly, a testicular cell suspension was isolated by enzymatic digestion with DNase and trypsin and filtered through a 40 uM mesh to remove cell clumps. Germ cells were then enriched from these suspensions through a 30% percoll gradient. […]

The test system of series [4] is spermatogenesis in adult mice. Nature of the series: ip injection into adult mice, testis sections stained with PAS-H. The format is in vivo, mouse. The conditions noted are these: 15 days later. The protocol: as §1, with “cells. […] Furthermore, the populations of spermatocytes and spermatids were reduced.” for “cells.”
Series [5] concerns spermatogenesis in testes of adult mice. Nature of the series: One injection into the testes of adult mice, sperm production. It is filed as in vivo, mouse.
Where [6] appears, read: 5 mg/kg ip daily for 3 or 7 days.

As for `O=S(=O)(O)c1ccc2cc(/N=N/c3cc(S(=O)(=O)O)c4cccnc4c3O)ccc2c1` [NSC-87877, 8-Hydroxy-7-[(6-sulfo-2-naphthyl)azo]-5-quinolinesulfonic acid], in the series with spleen tissue, the “damage of spleen tissue” value is on record as “not damaged”. The “increase in the number of GS cells detached from the feeder cells” value in the series with GS cells [1] came out at 3 fold. For the same molecule, the “FGF and GDNF-mediated phosphorylation (activation) of ERK” value in series [2] is “decreased FGF and GDNF mediated activation of ERK”. The “FGF and GDNF-mediated phosphorylation (activation) of ERK” value in series [2] (listed as NSC-878777) is “inhibited the FGF and GDNF-mediated phosphorylation of ERK”. Also, the “reduction of the number of GS cells” value in the series with GS cells [3] came to 22%. Moreover, in series [4] (setting [6]), the “further disruption of spermatogenesis (elongated spermatids)” value is “mis-localization and mis-orientation of elongated spermatids”; the “populations of spermatocytes and spermatids” value is reported as “reduced”; the “spermatogonia in tubules at the periphery of the testes” value was “absence of spermatogonia”. Further, the “germ cells in some tubule cross sections” value in series [4] (5 mg/kg ip daily for 7 days) was “nearly all germ cells were absent”. Also, the “sperm production, long term” value in series [5] (one injection of 10 mg/kg into the testes, adult mice, 70 days) is reported as “loss of sperm production in some regions of the testes”. The “spermatogenesis (sperm production)” value in series [5] (one injection of 40 mg/kg into the testes, adult mice, 15 days later) was “sufficient to disrupt spermatogenesis”. Also, the fertility entry in series [5] (single dose of 10 mg/kg or 40 mg/kg, mouse) is given as “effective in decreasing fertility”.

Values taken from patent US20160129021A1, “STERILIZATION METHOD” (UNIVERSITY OF PITTSBURGH - OF THE COMMONWEALTH SYSTEM OF …, priority 2013, published 2016).
